Results reported in ChEMBL document CHEMBL1156106 (J Med Chem, 2009).

Assays:
[1] = tested on: Rattus norvegicus; test: Effect on behavioural activity in rat assessed as cocaine-induced lever response at 0.5 mg/kg, po pretreated with cocaine for 45 mins by drug-discrimination studies; format: functional
[2] = tested on: Rattus norvegicus; test: Effect on behavioural activity in rat assessed as cocaine-induced lever response at 10 mg/kg, ip pretreated with cocaine for 15 mins by drug-discrimination studies; format: functional; conditions: route intraperitoneal
[3] = tested on: Rattus norvegicus; test: Effect on behavioural activity in rat assessed as cocaine-induced lever response at 10 mg/kg, po pretreated with cocaine for 180 mins by drug-discrimination studies; format: functional
[4] = tested on: Rattus norvegicus; test: Effect on behavioural activity in rat assessed as cocaine-induced lever response at 25 mg/kg, po pretreated with cocaine for 45 mins by drug-discrimination studies; format: functional
[5] = tested on: Rattus norvegicus; test: Effect on behavioural activity in rat assessed as cocaine-induced lever response at 10 mg/kg, po pretreated with cocaine for 360 mins by drug-discrimination studies; format: functional
[6] = tested on: Rattus norvegicus; test: Effect on behavioural activity in rat assessed as cocaine-induced lever response at 1 mg/kg, po pretreated with cocaine for 90 mins by drug-discrimination studies; format: functional
[7] = tested on: Mus musculus; test: Antidepressant activity in ip dosed mouse assessed as time to reach peak stimulation of locomotor activity; format: functional
[8] = tested on: Rattus norvegicus; test: Effect on behavioural activity in rat assessed as cocaine-induced lever response at 0.5 mg/kg, ip pretreated with cocaine for 15 mins by drug-discrimination studies; format: functional; conditions: route intraperitoneal
[9] = tested on: Mus musculus; test: Antidepressant activity in ip dosed mouse assessed as stimulation of locomotor activity; format: functional
[10] = tested on: Rattus norvegicus; test: Effect on behavioural activity in rat assessed as cocaine-induced lever response at 0.5 mg/kg, po pretreated with cocaine for 180 mins by drug-discrimination studies; format: functional
[11] = tested on: Rattus norvegicus; test: Effect on behavioural activity in rat assessed as cocaine-induced lever response at 5 mg/kg, ip pretreated with cocaine for 15 mins by drug-discrimination studies; format: functional; conditions: route intraperitoneal
[12] = tested on: Mus musculus; test: Antidepressant activity in ip dosed mouse assessed as duration of locomotor activity; format: functional
[13] = tested on: Rattus norvegicus; test: Effect on behavioural activity in rat assessed as cocaine-induced lever response at 0.1 mg/kg, ip pretreated with cocaine for 15 mins by drug-discrimination studies; format: functional; conditions: route intraperitoneal
[14] = tested on: Rattus norvegicus; test: Effect on behavioural activity in rat assessed as cocaine-induced lever response at 5 mg/kg, po pretreated with cocaine for 180 mins by drug-discrimination studies; format: functional
[15] = tested on: Rattus norvegicus; test: Effect on behavioural activity in rat assessed as cocaine-induced lever response at 0.5 mg/kg, po pretreated with cocaine for 360 mins by drug-discrimination studies; format: functional
[16] = tested on: Rattus norvegicus; test: Effect on behavioural activity in rat assessed as cocaine-induced lever response at 5 mg/kg, po pretreated with cocaine for 45 mins by drug-discrimination studies; format: functional
[17] = tested on: Rattus norvegicus; test: Effect on behavioural activity in rat assessed as cocaine-induced lever response at 10 mg/kg, po pretreated with cocaine for 45 mins by drug-discrimination studies; format: functional
[18] = tested on: Rattus norvegicus; test: Effect on behavioural activity in rat assessed as cocaine-induced lever response at 0.25 mg/kg, ip pretreated with cocaine for 15 mins by drug-discrimination studies; format: functional; conditions: route intraperitoneal
[19] = tested on: Rattus norvegicus; test: Effect on behavioural activity in rat assessed as cocaine-induced lever response at 25 mg/kg, po pretreated with cocaine for 180 mins by drug-discrimination studies; format: functional
[20] = tested on: Rattus norvegicus; test: Effect on behavioural activity in po dosed rat assessed as cocaine-induced lever response pretreated with cocaine by drug-discrimination studies; format: functional
[21] = tested on: Rattus norvegicus; test: Effect on behavioural activity in rat assessed as cocaine-induced lever response at 1 mg/kg, po pretreated with cocaine for 180 mins by drug-discrimination studies; format: functional
[22] = tested on: Rattus norvegicus; test: Effect on behavioural activity in rat assessed as cocaine-induced lever response at 10 mg/kg, po pretreated with cocaine for 90 mins by drug-discrimination studies; format: functional
[23] = tested on: Rattus norvegicus; test: Effect on behavioural activity in rat assessed as cocaine-induced lever response at 1 mg/kg, po pretreated with cocaine for 41 mins by drug-discrimination studies; format: functional
[24] = tested on: Rattus norvegicus; test: Effect on behavioural activity in rat assessed as cocaine-induced lever response at 25 mg/kg, po pretreated with cocaine for 90 mins by drug-discrimination studies; format: functional
[25] = tested on: Rattus norvegicus; test: Effect on behavioural activity in rat assessed as cocaine-induced lever response at 0.25 mg/kg, po pretreated with cocaine for 45 mins by drug-discrimination studies; format: functional
[26] = tested on: Rattus norvegicus; test: Effect on behavioural activity in rat assessed as cocaine-induced lever response at 5 mg/kg, po pretreated with cocaine for 90 mins by drug-discrimination studies; format: functional
[27] = tested on: Rattus norvegicus; test: Effect on behavioural activity in rat assessed as cocaine-induced lever response at 5 mg/kg, po pretreated with cocaine for 360 mins by drug-discrimination studies; format: functional
[28] = tested on: Rattus norvegicus; test: Effect on behavioural activity in rat assessed as cocaine-induced lever response at 0.25 mg/kg, po pretreated with cocaine for 360 mins by drug-discrimination studies; format: functional
[29] = tested on: Rattus norvegicus; test: Effect on behavioural activity in rat assessed as cocaine-induced lever response at 2.5 mg/kg, ip pretreated with cocaine for 15 mins by drug-discrimination studies; format: functional; conditions: route intraperitoneal
[30] = tested on: Rattus norvegicus; test: Effect on behavioural activity in rat assessed as cocaine-induced lever response at 0.25 mg/kg, po pretreated with cocaine for 90 mins by drug-discrimination studies; format: functional
[31] = tested on: Rattus norvegicus; test: Effect on behavioural activity in rat assessed as cocaine-induced lever response at 1 mg/kg, po pretreated with cocaine for 360 mins by drug-discrimination studies; format: functional
[32] = tested on: Rattus norvegicus; test: Effect on behavioural activity in rat assessed as cocaine-induced lever response at 25 mg/kg, ip pretreated with cocaine for 15 mins by drug-discrimination studies; format: functional; conditions: route intraperitoneal
[33] = tested on: Rattus norvegicus; test: Effect on behavioural activity in rat assessed as cocaine-induced lever response at 0.25 mg/kg, po pretreated with cocaine for 180 mins by drug-discrimination studies; format: functional
[34] = tested on: Rattus norvegicus; test: Effect on behavioural activity in rat assessed as cocaine-induced lever response at 1 mg/kg, ip pretreated with cocaine for 15 mins by drug-discrimination studies; format: functional; conditions: route intraperitoneal
[35] = tested on: Rattus norvegicus; test: Effect on behavioural activity in rat assessed as cocaine-induced lever response at 0.5 mg/kg, po pretreated with cocaine for 90 mins by drug-discrimination studies; format: functional
[36] = tested on: Rattus norvegicus; test: Effect on behavioural activity in rat assessed as cocaine-induced lever response at 2.5 mg/kg, po pretreated with cocaine for 90 mins by drug-discrimination studies; format: functional
[37] = tested on: Rattus norvegicus; test: Effect on behavioural activity in rat assessed as cocaine-induced lever response at 2.5 mg/kg, po pretreated with cocaine for 45 mins by drug-discrimination studies; format: functional
[38] = tested on: Rattus norvegicus; test: Effect on behavioural activity in rat assessed as cocaine-induced lever response at 2.5 mg/kg, po pretreated with cocaine for 180 mins by drug-discrimination studies; format: functional
[39] = tested on: Rattus norvegicus; test: Effect on behavioural activity in rat assessed as cocaine-induced lever response at 25 mg/kg, po pretreated with cocaine for 360 mins by drug-discrimination studies; format: functional
[40] = tested on: Rattus norvegicus; test: Effect on behavioural activity in rat assessed as cocaine-induced lever response at 2.5 mg/kg, po pretreated with cocaine for 360 mins by drug-discrimination studies; format: functional
[41] = tested on: Mus musculus; test: Antidepressant activity in ip dosed mouse assessed as stimulation of locomotor activity relative to cocaine; format: functional
[42] = tested on: Rattus norvegicus; test: Effect on behavioural activity in rat assessed as cocaine-induced lever response at 100 mg/kg, ip pretreated with cocaine for 15 mins by drug-discrimination studies; format: functional; conditions: route intraperitoneal
[43] = tested on: Rattus norvegicus; test: Effect on behavioural activity in rat assessed as cocaine-induced lever response at 50 mg/kg, ip pretreated with cocaine for 15 mins by drug-discrimination studies; format: functional; conditions: route intraperitoneal
[44] = biological target: T1, Sodium-dependent serotonin transporter (Homo sapiens, UniProt P31645); test: biochemical; format: cell-based, HEK293
[45] = tested on: Rattus norvegicus; test: Effect on behavioural activity in ip dosed rat assessed as cocaine-induced lever response pretreated with cocaine by drug-discrimination studies; format: functional
[46] = biological target: T2, Sodium-dependent noradrenaline transporter (Homo sapiens, UniProt P23975); test: Displacement of [125I]RTI55 from cloned human NET expressed in HEK293 cells; format: cell-based
[47] = biological target: T3, Sodium-dependent dopamine transporter (Homo sapiens, UniProt Q01959); test: Inhibition of [3H]dopamine reuptake at human DAT expressed in HEK293 cells; format: cell-based
[48] = biological target: T2, Sodium-dependent noradrenaline transporter; test: Inhibition of [3H]norepinephrine reuptake at human NET expressed in HEK293 cells; format: cell-based
[49] = biological target: T3, Sodium-dependent dopamine transporter; test: Displacement of [125I]RTI55 from cloned human DAT expressed in HEK293 cells; format: cell-based
[50] = biological target: T1, Sodium-dependent serotonin transporter; test: Inhibition of [3H]serotonin reuptake at human SERT expressed in HEK293 cells; format: cell-based

T2 sequence (P23975 whole entry): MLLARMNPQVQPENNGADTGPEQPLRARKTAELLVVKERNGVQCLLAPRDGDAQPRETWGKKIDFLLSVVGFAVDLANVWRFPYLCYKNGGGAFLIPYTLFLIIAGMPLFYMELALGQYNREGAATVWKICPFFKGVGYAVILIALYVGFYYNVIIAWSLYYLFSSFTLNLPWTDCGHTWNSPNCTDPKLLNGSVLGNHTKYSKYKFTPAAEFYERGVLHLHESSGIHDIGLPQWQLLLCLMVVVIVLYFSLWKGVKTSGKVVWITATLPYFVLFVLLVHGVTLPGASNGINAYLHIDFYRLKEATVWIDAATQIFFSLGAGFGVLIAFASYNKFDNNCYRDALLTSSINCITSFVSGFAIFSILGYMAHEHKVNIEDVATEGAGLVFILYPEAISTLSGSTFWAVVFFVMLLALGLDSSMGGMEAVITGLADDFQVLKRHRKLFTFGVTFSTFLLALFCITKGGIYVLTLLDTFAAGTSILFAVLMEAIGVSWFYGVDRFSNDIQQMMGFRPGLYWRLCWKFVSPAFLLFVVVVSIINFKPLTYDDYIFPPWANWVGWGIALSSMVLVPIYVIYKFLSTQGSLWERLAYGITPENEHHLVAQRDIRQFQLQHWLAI
T1 sequence (P31645 whole entry): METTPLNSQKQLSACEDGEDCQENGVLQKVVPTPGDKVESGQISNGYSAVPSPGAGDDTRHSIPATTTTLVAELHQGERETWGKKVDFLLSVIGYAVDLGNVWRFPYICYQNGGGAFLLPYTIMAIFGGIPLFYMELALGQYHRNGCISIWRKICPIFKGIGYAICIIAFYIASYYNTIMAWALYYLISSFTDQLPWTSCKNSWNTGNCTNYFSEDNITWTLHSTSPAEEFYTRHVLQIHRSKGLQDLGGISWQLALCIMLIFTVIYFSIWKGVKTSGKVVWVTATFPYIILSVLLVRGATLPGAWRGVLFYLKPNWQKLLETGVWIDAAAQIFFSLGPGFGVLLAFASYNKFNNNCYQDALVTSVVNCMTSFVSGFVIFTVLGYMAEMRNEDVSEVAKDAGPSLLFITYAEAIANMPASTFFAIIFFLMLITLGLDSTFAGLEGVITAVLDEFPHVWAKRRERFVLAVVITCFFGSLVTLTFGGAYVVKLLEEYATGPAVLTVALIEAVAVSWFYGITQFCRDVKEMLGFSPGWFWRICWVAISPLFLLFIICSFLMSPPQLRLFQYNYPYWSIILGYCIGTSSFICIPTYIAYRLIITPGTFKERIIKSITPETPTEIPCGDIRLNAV
T3 sequence (Q01959 whole entry): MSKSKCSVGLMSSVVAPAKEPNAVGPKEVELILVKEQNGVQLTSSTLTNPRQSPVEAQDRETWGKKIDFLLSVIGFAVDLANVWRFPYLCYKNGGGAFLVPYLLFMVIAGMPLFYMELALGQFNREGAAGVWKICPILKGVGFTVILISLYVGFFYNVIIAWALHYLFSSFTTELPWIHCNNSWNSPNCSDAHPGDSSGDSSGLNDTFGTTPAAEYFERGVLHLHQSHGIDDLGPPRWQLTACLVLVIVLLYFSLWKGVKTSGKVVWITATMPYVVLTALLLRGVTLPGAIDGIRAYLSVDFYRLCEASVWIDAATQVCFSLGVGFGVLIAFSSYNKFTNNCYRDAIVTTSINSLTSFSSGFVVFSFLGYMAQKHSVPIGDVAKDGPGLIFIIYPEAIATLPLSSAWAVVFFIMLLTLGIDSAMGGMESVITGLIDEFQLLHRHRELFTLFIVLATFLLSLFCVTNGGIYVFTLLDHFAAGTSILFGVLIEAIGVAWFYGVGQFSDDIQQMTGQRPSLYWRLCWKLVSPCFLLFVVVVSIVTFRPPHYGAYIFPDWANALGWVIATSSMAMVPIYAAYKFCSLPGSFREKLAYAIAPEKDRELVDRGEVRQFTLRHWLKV

## CC(NC1CC1)C(=O)c1cccc(Cl)c1 (stereo unspecified)
[1]
  Activity: 1%
[2]
  Activity: 66.7%
[3]
  Activity: 33%
[4]
  Activity: 67%
[5]
  Activity: 0%
[6]
  Activity: 0%
[7]
  Time to peak locomotor stimulation: 0 min
[8]
  Activity: 63%
[9]
  ED50: 16.6 mg/kg
[10]
  Activity: 0%
[11]
  Activity: 67.2%
[12]
  Time: 350 min
[13]
  Activity: 9%
[14]
  Activity: 0%
[15]
  Activity: 2%
[16]
  Activity: 34%
[17]
  Activity: 74%
[18]
  Activity: 24%
[19]
  Activity: 99%
[20]
  ED50: 12.8 mg/kg
[21]
  Activity: 0%
[22]
  Activity: 33%
[23]
  Activity: 0%
[24]
  Activity: 83%
[25]
  Activity: 0%
[26]
  Activity: 0%
[27]
  Activity: 0%
[28]
  Activity: 34%
[29]
  Activity: 39.5%
[30]
  Activity: 0%
[31]
  Activity: 0%
[32]
  Activity: 66.3%
[33]
  Activity: 0%
[34]
  Activity: 21.5%
[35]
  Activity: 16%
[36]
  Activity: 0%
[37]
  Activity: 34%
[38]
  Activity: 34%
[39]
  Activity: 0%
[40]
  Activity: 0%
[41]
  Activity: 82%

## CC(C)NC(C)C(=O)c1cccc(Cl)c1 (stereo unspecified)
[2]
  Activity: 53.3%
[7]
  Time to peak locomotor stimulation: 20 min
[8]
  Activity: 0.3%
[42]
  Activity: 94.9%
[43]
  Activity: 73.5%
[9]
  ED50: 6.2 mg/kg
[11]
  Activity: 43.8%
[12]
  Time: 50 min
[44]
  Ki: > 10000 nM
[29]
  Activity: 27%
[45]
  ED50: 8.8 mg/kg
[46]
  Ki: > 10000 nM
[32]
  Activity: 78.6%
[34]
  Activity: 21.2%
[41]
  Activity: 46%

## CC(C)CC(NC(C)(C)C)C(=O)c1cccc(Cl)c1 (stereo unspecified)
[7]
  Time to peak locomotor stimulation: 260 min
[47]
  IC50: 440 nM
[48]
  IC50: 360 nM
[9]
  ED50: 25.7 mg/kg
[12]
  Time: 60 min
[44]
  Ki: 6200 nM
[49]
  Ki: 140 nM
[46]
  Ki: 2300 nM
[50]
  IC50: > 10000 nM
[41]
  Activity: 89%
